Converted amounts (≈) assume the structure as drawn.

As a reminder, the IC50 is the concentration that gives 50% inhibition. The Kd is the constant that tells how readily two partners part at equilibrium. Broadly, the solubility is the concentration that dissolves in the medium under given conditions. A high value points to much dissolved substance.

The target of series [1] is T1, B-cell lymphoma 6 protein (Homo sapiens, UniProt P41182). Put plainly: Binding affinity to BCL6 (unknown origin) assessed as ratio of Kinact/Ki incubated for 4 hrs by IPC assay.
The target in series [2] is T1, B-cell lymphoma 6 protein. Put plainly: Inhibition of D2-SMRT peptide binding to human BCL6 BTB-POZ domain incubated for 60 mins by TR-FRET assay. On the technique in general: Time-resolved FRET reads energy transfer from a long-lived donor to a nearby acceptor.
Series [3] has as its target T1, B-cell lymphoma 6 protein. Put plainly: Displacement AF647-BCOR peptide from human BCL6 BTB-POZ domain incubated for 60 mins by TR-FRET assay.
The target of series [4] is T1, B-cell lymphoma 6 protein. Briefly: Displacement AF647-NCOR peptide from human BCL6 BTB-POZ domain incubated for 60 mins by TR-FRET assay.
The target in series [5] is T1, B-cell lymphoma 6 protein. Briefly: Binding affinity to BCL6 BTB domain (5 to 129 residues) (unknown origin) expressed in Escherichia coli using 5-TAMRA-RSEIISTAPSSWVVPGP as substrate incubated for 1 hrs by FP assay.
Series [6] has as its target T1, B-cell lymphoma 6 protein. Put plainly: Binding affinity to BCL6 BTB domain (5 to 129 residues) (unknown origin) expressed in Escherichia coli by SPR analysis.
In series [7] the target is T1, B-cell lymphoma 6 protein. Put plainly: Binding affinity to wild type full length BCL6 BTB domain having SMRT BBD motif sequence (unknown origin) transfected in human HEK293 cells by electrophoretic mobility shift assay. The series is classed as cell-based. Background: A gel shift assay detects complexes by their altered migration in electrophoresis.
A short description of series [8]: Binding affinity to wild type full length BCL6 BTB domain SMRT BBD motif sequence mutant (unknown origin) transfected in human HEK293 cells by electrophoretic mobility shift assay. The format is cell-based.
The test system of the next series is OCI-Ly1. Put plainly: Antiproliferative activity against human OCI-Ly1 cells assessed as growth inhbition by measuring metabolic viability incubated for 48 hrs by fluorometric resazurin reduction method. The series is classed as functional, cell-based. The note with it: OCI-Ly1, 48 h. Background: Resazurin is reduced to fluorescent resorufin, in cell work by metabolically active cells.

Series [9] relates to OCI-Ly7. Put plainly: Antiproliferative activity against human OCILY7 cells assessed as growth inhbition by measuring metabolic viability incubated for 48 hrs by fluorometric resazurin reduction method. The format is functional, cell-based. The note with it: OCI-Ly7, 48 h.
Another series deals with OCI-Ly10. Briefly: Antiproliferative activity against human OCI-Ly10 cells assessed as growth inhbition by measuring metabolic viability incubated for 48 hrs by fluorometric resazurin reduction method. The note with it: OCI-Ly10, 48 h. The series is classed as functional, cell-based.
The nature of series [10]: Aqueous solubility of compound. The format is physicochemical. The settings on record: buffer.
For series [11], the target named is T1, B-cell lymphoma 6 protein. Put plainly: Binding affinity to BCL6 BTB domain (unknown origin) by SPR analysis.
For series [12], the target named is T1, B-cell lymphoma 6 protein. Briefly: Inhibition of BCL6 (unknown origin) by HTRF assay.
In a further series the test system is SUD4. Put plainly: Antitumor activity against BCL6 dependent human SU-DHL-4 cells assessed as cell growth inhibition. The series is classed as functional, cell-based.
Another series has as its system L02. Briefly: Antitumor activity against human L02 cells assessed as cell growth inhibition. The series is classed as functional, cell-based.
A further series concerns SU-DHL-6. Briefly: Antitumor activity against BCL6 dependent human SU-DHL-6 cells assessed as cell growth inhibition. The series is classed as functional, cell-based.
Series [13] relates to OCI-Ly7. Put plainly: Antitumor activity against BCL6 dependent human OCILY7 cells assessed as cell growth inhibition. The series is classed as functional, cell-based.
Another series has as its system Farage. Put plainly: Antitumor activity against BCL6 dependent human Farage cells assessed as cell growth inhibition. The series is classed as functional, cell-based.
The next series deals with DOHH-2. Briefly: Antitumor activity against BCL6 dependent human DOHH-2 cells assessed as cell growth inhibition. The format is functional, cell-based.

As to `O=C(CCl)NCCCCn1c(=O)[nH]c2ccc(Nc3ccc([N+](=O)[O-])cc3Cl)cc21`, in [1], the Ratio is 3 10^1/M/s.
As for `Cc1ncccc1[C@H]1C[C@@H](c2cccc3nc(N)ccc23)Nc2c(F)cnn21`, the concentration for half-maximal inhibition (IC50) in [2] was 10 nM; in [3], 25.1 nM; in series [4], 25.1 nM.
Consider `CCC(=O)NCCN1C(=O)C(CCCCNC(=O)CCl)Oc2cc(Nc3cc(OC4CCOCC4)c([N+](=O)[O-])cc3Cl)ccc21` (stereo unspecified), for which, in series [1], the Ratio was 1.9 10^4/M/s.
Take `Cc1cc(C)n(-c2ncc(Cl)c(Nc3ccc(Cl)cc3)n2)n1`: the Kd in series [5] turned out to be 18000 nM; in series [6], 20000 nM.
Take H-HHHHHHPTATHAGLVATVKEAGRSIHEI-OH: the Kd came to 10200 nM in [7] and 148000 nM in series [8]. Moreover, the concentration for half-maximal inhibition (IC50) in the series with OCI-Ly1, in the series on OCI-Ly7 [9] and in the series with OCI-Ly10 was 11300 nM throughout.
In the case of `C[C@@H](NC(=O)COC(=O)CCN1C(=O)/C(=C2/C(=O)Nc3ccc(Cl)cc32)SC1=S)C(=O)N[C@@H](CCC(=O)O)C(=O)O`, in series [10], the solubility worked out at 0.218 µg/mL (≈ 0.348 µM).
Take `C[C@@H]1CN(c2ncc(F)c(Nc3ccc(NC(=O)c4cccc(Br)n4)cc3)n2)C[C@H](C)N1`: the Kd in [11] was determined as 1610 nM; in [12] it was 1370 nM. The IC50 was found to be 1390 nM in the series with SUD4; 21600 nM in the series on L02; 1100 nM in the series on SU-DHL-6; 1100 nM in the series with OCI-Ly7 [13]; 1100 nM in the series with Farage; 1100 nM in the series on DOHH-2.

For the origin of these results see ChEMBL document CHEMBL5150055, “B-cell Lymphoma 6 Inhibitors: Current Advances and Prospects of Drug Development for Diffuse Large B-cell Lymphomas” (J Med Chem, 2022).
